Like-named read-outs stand apart in the source and are kept apart here.

Holding throughout (type): binding
Experiment [1] relates to postmortem human brain Aβ-amyloid sites.
Text: (§1) The brain sections were air dried, exposed overnight on a phosphor film, and then placed on the Phosphor Autoradiographic Imaging System/Cyclone Storage Phosphor System (Packard Instruments Co).
as §1

The subject of a further experiment is human Aβ-amyloid plaques. Nature of the experiment: 3H-PIB competition autoradiography on postmortem AD brain sections. The following applies: 10 μM competitor; postmortem AD human brain slices; preliminary studies. The protocol: ^3H-PIB Binding: Human hippocampus sections (7 μm thick) were preincubated in 10% alcohol PBS buffer for 10 minutes. The brain sections were placed in a glass chamber and incubated with [^3H]-PIB (2 μCi/cc) in 10% alcohol PBS buffer, pH 7.4 at 37° C. for 1 hr. The slices were then washed with cold 10% alcohol PBS buffer (2×3 mins), cold deionized water 1 min, respectively. The brain sections were air dried, exposed overnight on a phosphor film, and then placed on the Phosphor Autoradiographic imaging System/Cyclone Storage Phosphor System (Packard Instruments Co). Regions of interest (ROIs) were drawn on the slices and the extent of binding of ^3H-PIB was measured with DLU/mm2 using the OptiQuant acquisition and analysis program (Packard Instruments Co).
Since FDGBTA is an analog of PIB, which is known to bind to human Aβ-amyloid plaques, the inventors tested competition of both PIB and FDGBTA with postmortem human brain Aβ-amyloid sites labeled with ^3H-PIB as is illustrated in Panel A of FIG. 5, with the corresponding photomicrographs in Panel B of FIG. 5.

For a further experiment, the system named is Aβ-Amyloid plaques. Nature of the experiment: Human brain homogenate assay, displacement of 3H-PIB. The following applies: 3H-PIB displacement curve; rFDGBTA 10^−11 to 10^−4 M; PBS buffer, 10% alcohol, pH 7.4. The protocol: rFDGBTA: Reductive amination was carried out at room temperature using an anhydrous solution of molecular sieves, methanol and acetic acid. The yield for the reduced rFDGBTA was 94%. Human brain homogenate assay of rFDGBTA for Aβ-Amyloid plaques was investigated. The homogenate was suspended in different concentrations of rFDGBTA (10^−11 to 10^−4M) in the assay buffer (PBS buffer, 10% alcohol, pH 7.4). Nonspecific binding was determined by including […]. Total assay volume was 0.25 ml.

2-^18F-Fluorodeoxyglucose [18F-FDG]: the “binding to AD brain grey matter / Aβ-amyloid plaques (in words)” value in experiment [1] was “did not exhibit any binding”. For the compound `[11CH3]Nc1ccc(-c2nc3ccc(O)cc3s2)cc1` [11C-PIB], in experiment [1] (postmortem AD human brain sections, autoradiography), the “binding to AD brain grey matter / Aβ-amyloid plaques (in words)” value is “significant binding”. The “ratio of binding, AD brain versus control subjects (grey matter)” value in experiment [1] (postmortem human hippocampus sections, autoradiography) is reported as 6. Consider `OCC1OC(Nc2ccc(-c3nc4ccc(O)cc4s3)cc2)C(F)C(O)C1O` (centres unmarked) [FDGBTA], for which the “reduction of 3H-PIB binding in the grey matter areas” value in the experiment on human Aβ-amyloid plaques worked out at 80%. On to `OCC(O)C(O)C(O)C(F)CNc1ccc(-c2nc3ccc(O)cc3s2)cc1` (centres unmarked) [rFDGBTA], for which the “binding compared to PIB (times weaker)” value with Aβ-Amyloid plaques is roughly 100 times.

Values taken from US9546193B2, “Compositions and methods for 18F-fluorodeoxyglycosylamines” (The Regents of the University of California, priority 2013, dated 2017).
